Results taken from ChEMBL document CHEMBL5725252, “Spirocyclic dihydro-thiazine and dihydro-oxazine BACE inhibitors, and compositions and uses thereof” (2016).

Key:
Beta-secretase 1 [1] = target: T1, Beta-secretase 1 (Homo sapiens, UniProt P56817); test: FP Assay: Compounds are also assessed for BACE1 and Cathepsin D activity using an FP Assay. Compounds to be assessed (e.g. compounds as described in the above examples) are serially diluted 1:3 with DMSO and each concentration point is transferred to a 96 well plate, 6 uL per well, followed by addition of 194 uL of assay buffer (100 mM sodium acetate, pH 4.5 with 0.001% Tween-20). A 10 uL compound sample from this plate is transferred to a well of a 384 well plate and combined with 10 uL per well of BACE1 enzyme (0.3 nM in assay buffer) or Cathepsin D enzyme (1.8 nM in assay buffer) and the plate is incubated at room temperature for 30 minutes.
T1 sequence (P56817 whole entry): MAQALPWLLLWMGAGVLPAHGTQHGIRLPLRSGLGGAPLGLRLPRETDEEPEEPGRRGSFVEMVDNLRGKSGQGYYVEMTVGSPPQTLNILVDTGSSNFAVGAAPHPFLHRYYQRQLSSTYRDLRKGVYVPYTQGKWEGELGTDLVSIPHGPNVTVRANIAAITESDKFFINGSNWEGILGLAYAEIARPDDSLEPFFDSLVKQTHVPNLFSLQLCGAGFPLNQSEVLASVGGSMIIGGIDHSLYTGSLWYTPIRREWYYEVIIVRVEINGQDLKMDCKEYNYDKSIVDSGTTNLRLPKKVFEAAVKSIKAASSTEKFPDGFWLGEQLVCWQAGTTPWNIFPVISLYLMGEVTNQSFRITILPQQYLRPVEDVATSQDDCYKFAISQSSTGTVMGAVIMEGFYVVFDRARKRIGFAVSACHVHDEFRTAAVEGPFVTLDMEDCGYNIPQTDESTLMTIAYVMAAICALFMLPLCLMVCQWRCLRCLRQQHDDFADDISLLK

Beta-secretase 1 [2] = target: T1, Beta-secretase 1; test: AlphaScreen Assay: BACE1 activity can be assessed in an AlphaScreen® assay. Compounds to be assessed (e.g. compounds as described in the above examples) are serially diluted 1:4 in DMSO, then plated by diluting 10 μL of compound with 40 μl of assay buffer (1×PBS, 0.01% Tween-20, pH 7.0, 0.05% BSA). The diluted compound is transferred (4 μL per well) to a […] well assay plate and 4 μL of BACE1 enzyme (20 mg/mL) is added and incubated for 15 minutes. This assay uses a probe that is a BACE1 binding sight ligand linked to biotin, which can be displaced by test compound dependent on compound binding affinity. This of biotinylated probe (4 μL) is added and incubated for 1 hour, followed with 4 μL of donor and acceptor bead mixture and incubated for 2 hours. The fluorescent signal is read on a plate reader and the value as a function of compound concentration is used to determine the IC50.

With `C[C@@]1(c2cc(/C=C/c3ccc(F)cc3)ccc2F)CC2(CCC(F)(F)CC2)OC(N)=N1` the IC50 (Beta-secretase 1 [1]) was 13.1 µM and the IC50 (Beta-secretase 1 [2]) was 1.96 µM.
